Data set [1] deals with mixed lymphocyte assay culture (PBMC). The data set can be described thus: percent viable cells in mixed lymphocyte assay culture after six days. Format: cell-based, human. To be noted: 100 μM. As to the method: Control cells that have not been exposed to a drug are generally 78 to 85% viable under such culture conditions. For this graph, all of the compounds were present at 100 μM, which is usually well above their IC50 concentration in this assay (see FIG. 1).

The test system of data set [2] is murine thymocytes. The data set can be described thus: inhibition of murine thymocyte proliferation stimulated by ConA and IL-1α. Format: cell-based, murine (Balb/C mice). To be noted: FIG. 4, 4 days. As to the method: The drugs (inventive compounds) were added to the cells at the doses indicated two hours prior to activation with ConA and IL-1α. […] Background counts were less than 200 cpm. This in vitro assay is a model for immune suppression and treatment or prevention of autoimmune diseases.
A third assay measures an ability of an inventive compound to inhibit IL-2-induced proliferation of murine thymocytes. Thymus glands are obtained from 4-6 week old mice and plated as a single cell suspension into flat bottomed wells in RPMI 1640 medium supplemented with 10% fetal calf serum. The inventive compounds are added to appropriate wells and the cells are incubated for 1-2 hrs. Concanavilin A (ConA, 0.25 μg/ml) and IL-1 (20 ng/ml) are added and the plates are incubated for 4 days. Cell proliferation is determined as above. There are also variations for this assay that follow the same basic stimulation and measure inhibition of proliferation format. […]
This example illustrates the effect of CT1514, CT1525, CT1527, CT1529, CT1577, CT1583, CT1589, CT1595, CT2519, CT1205, CT1801 and CT1908 on inhibition of murine thymocyte proliferation stimulated by Concanavalin A (ConA) and interleukin-2 (IL-2) (FIG. 4). […] The cells were harvested and incorporated tritiated thymidine was determined in a liquid scintillation counter. […]

Data set [3] has as its system murine splenocytes. The data set can be described thus: inhibition of murine splenocyte proliferation stimulated by anti-mu and IL-4. Format: cell-based. To be noted: FIG. 5; anti-mu (10 μg/ml) and IL-4 (12.5 ng/ml). As to the method:
Drug was added to the cells at the doses indicated two hours prior to activation with anti-mu and IL-4. This in vitro assay is a model for immune suppression and treatment or prevention of autoimmune diseases. […] Background counts were less than 200 cpm.
There are a series of in vitro assays that can be used to measure immunosuppressive activity of a particular compound. These assays are a predictive model for treatment or prevention of autoimmune diseases, such as diabetes, lupus, arthritis, and the like. A first assay measures immunosuppressive activity of a drug at the B cell level. Spleens from adult mice contain immature B cells that express surface IgM. Cross-linking the surface IgM with an anti-mu antibody results in B cell proliferation. Additionally, this activation results in an increased expression of interleukin-4 receptors(IL-4R) on the surface of such cells. IL-4 acts as a growth factor for B cells and will increase the amount of proliferation induced by anti-mu. In the first assay, a mixture of anti-mu and murine IL-4 is added to murine splenocytes to cause their proliferation. Mice spleens are obtained from adult mice and a single cell suspension is prepared in RPMI 1640 medium supplemented with 10% FCS. […] Proliferation is determined on the third day with a pulse of tritiated thymidine. […]

Data set [4] has as its system human stromal cells. The data set can be described thus: inhibition of proliferation of human stromal cells stimulated with PDGF. The class given is cell-based. As to the method: This assay is a model for restenosis and treatment of atherosclerosis and coronary artery disease. Stromal cells were starved in serum-free media for one day and then stimulated with 50 ng/ml PDGF-BB. The drags were added at the indicated concentrations one hour prior to PDGF stimulation. Tritiated thymidine was added for one day at the time of PDGF stimulation and the cells were harvested and counted by liquid scintillation counting 24 hrs later. Background counts (i.e., starved cells) were approximately 1% of control levels.
Another assay for measuring activity of the inventive compounds involves determining PDGF (platelet derived growth factor) proliferative response using human-derived stromal cells. Human stromal cells are plated (e.g., about 2000 cells per well) in defined media (e.g., 69% McCoy's, 12.5% fetal calf serum, 12.5% horse serum, 1% antibiotics, 1% glutamine, 1% vitamin supplement, 0.8% essential amino acids, 1% sodium pyruvate, 1% sodium bicarbonate, 0.4% non-essential amino acids and 0.36% hydrocortisone). Two to three days later, the stromal cells are starved in serum-free media. Twenty four hours later, the cells are treated with a stimulating agent, such as PDGF-AA, PDGF-BB or basic FGF (fibroblast growth factor) with or without IL-1α or TNF, and tritiated thymidine. Cell proliferation is determined by liquid scintillation counting.
This assay is a model for restenosis and treatment of atherosclerosis and coronary artery disease. Stromal cells were starved in serum-free media for one day and then stimulated with 50 ng/ml PDGF-BB. The drugs were added at the indicated concentrations one hour prior to PDGF stimulation. Tritiated thymidine was added for one day at the time of PDGF stimulation and the cells were harvested and counted by liquid scintillation counting 24 hrs later. Background counts (i.e., starved cells) were approximately 1% of control levels.

Data set [5] relates to TNF release from monocytes in whole blood. The data set can be described thus: ex vivo human TNF model, LPS-mediated TNF release in whole blood. The settings on record: FIG. 14. The class given is cell-based. As to the method:
This model adds LPS to whole blood (normal human volunteers) to trigger a dose-dependent synthesis and extracellular release of TNF according to Desch et al. (Lymphokine Res. 8:141, 1989). The ex vivo model examines whether LPS-mediated release of TNF from monocytes in whole blood can be block by an inventive compound.
An ex vivo human sepsis model is described in Desch et al., Lymphokine Res. 8:141, 1989 and in Ooi et al., J. Exp. Med. 174:649, 1991. Briefly, whole blood from humans is incubated with LPS (endotoxin). TNF released from cells (mostly from monocytes) is measured. The inventive compounds lower TNF levels as compared with untreated controls in this model.
This example illustrates a comparative experiment comparing CT1595, CT1529 and CT2519 in an ex vivo human TNF model described herein. This assay is a predictive model for treatment and prevention of septic shock and sepsis syndrome. This model adds LPS to whole blood (normal human volunteers) to trigger a dose-dependent synthesis and extracellular release of TNF according to Desch et al. (Lymphokine Res. 8:141, 1989). The ex vivo model examines whether LPS-mediated release of TNF from monocytes in whole blood can be block by an inventive compound.

For data set [6], the system named is CMV promoter activity in transformed (adenovirus) cells. The data set can be described thus: CMV promoter assay (gene transcription and translation, cytotoxic activity). The class given is cell-based. The source says:
This example illustrates data regarding proliferative activity of various inventive compounds for inducting CMV promoter activity. The CMV promoter assay measures gene transcription and translation activity wherein any active compounds will nave cytotoxic activity to inhibit cellular protein synthesis machinery in transformed (adenovirus) cells.

Data set [7] concerns polymorphonuclear leukocytes. The settings on record: in response to a stimulator of chemotaxis; U.S. Pat. No. 4,636,507; cited from earlier work.
For data set [8] the following is noted: U.S. Pat. Nos. 4,515,795 and 4,576,947; cited from earlier work.
For data set [9], the system named is ras-transformed NIH/3T3 cells. The data set can be described thus: serum-stimulated generation of DAG and PA in ras-transformed NIH/3T3 cells. To be noted: pretreatment of cells. Format: cell-based. The source says: For example, activating ras mutations result in increased generation of DAG on stimulation with mitogens, although the sources of DAG have differed between experimental systems. In nontransformed renal mesangial cells, IL-1β stimulation increased PLA2 and LPAAT activation, resulting in generation of sn-2 unsaturated PA and subsequent hydrolysis to DAG by phosphatidate phosphohydrolase. The ras transformation in NIH/3T3 cells upregulates serum-stimulated generation of DAG and PA. The specific species of DAG that is stimulated by serum is dioleoyl and for PA are dilinoleoyl and dioleoyl. […] The inhibition occurs either through suppressing the generation of PA de novo from lysoPA, or through inhibition of one or both arms of the Lands cycle. […] Therefore, the ras transformation mediates an upregulation of PA through indirect stimulation of PLA2 and/or LPAAT activity.

In data set [10] the test system is PAPH. The data set can be described thus: PAPH blockade in a specific activation pathway. The class given is cell-based, human. The settings on record: specific activation pathway that does not involve PI. The source says: The compounds and pharmaceutical compositions of the invention include inhibitors of subspecies of LPAAT and PAPH enzymes with substrate specificity for intermediates with 1,2-diunsaturated and 1-alkyl, 2-unsaturated subspecies. One representative example of such an inhibitor (although not within the genus of inventive compounds) is PTX. […] It should be emphasized that the compounds of the invention affect that subset of PAPH and LPAAT that relates to substrates with unsaturated fatty acids other than arachidonate in the sn-2 position, not the housekeeping forms of these enzymes that serve the PI pathway.

Data set [11] has as its system LPAAT. The data set can be described thus: formation of remodeled PA (LPAAT), in vitro. The class given is cell-based. The settings on record: high PTX concentrations. The source says: Even in the presence of PTX, cells continue to form PA through the action of PLD, and DAG is also formed through the action of phospholipase C on PC and PI. The latter pathway are not inhibited by the inventive compounds or PTX. In PTX-treated cells, DAG derived from remodeled and PLA-generated PA is diminished (e.g., 1,2-sn-dioleoyl DAG, 1-alkyl,2-linoleoyl DAG and 1-alkyl,2-docosahexaneolyl DAG). Therefore, the inventive compounds and PTX inhibit the formation of only a certain species of PA and DAG by selectively inhibiting a specific second messenger pathway that is only activated in cells by noxious stimuli, but is not used to signal normal cellular housekeeping functions.

The subject of data set [12] is ras-transformed NIH/3T3 cells.
In data set [13] the test system is TNF. To be noted: human, in vivo; cited from earlier work.

We go through three molecules from patent US5670506A, “Halogen, isothiocyanate or azide substituted xanthines” (Cell Therapeutics, Inc., priority 1993, dated 1997).

Consider `CC(CCCCn1c(=O)c2c(ncn2C)n(C)c1=O)N=C=S` (centres unmarked) [CT2519, 1-(5-isothiocyanatohexyl)-3,7-dimethylxanthine], for which the “viability in MLR culture” value in data set [1] is “not cytotoxic at 100 μM”. In addition, the “inhibition of thymocyte proliferation” value in [2] is on record as “most potent drugs”. Moreover, in [3], the “inhibition of splenocyte proliferation” value is “most potent inhibitors of splenocyte proliferation in a dose-response manner”. The “inhibition of human stromal cell proliferation” value in data set [4] (FIG. 7, 50 ng/ml PDGF-BB, in words) is “strongly inhibit proliferation”. Further, the IC50 was under 10 µM in [4] (Homo sapiens, read-out: IC50, inhibition of human stromal cell proliferation) and 10 µM in [6] (read-out: IC50 (μM), CMV promoter assay). The “block of LPS-mediated TNF release” value in data set [5] is on record as “could block TNF release in a dose-dependent fashion”. Besides, in [6] (in words), the “cytotoxicity in CMV promoter assay” value is “most cytotoxic compound tested”.
As to `CC(O)CCCCn1c(=O)c2c(ncn2C)n(C)c1=O` (centres unmarked) [M1, 1-(5-hydroxyhexyl)-3,7-dimethylxanthine], in data set [7], the “stimulation of chemotaxis in polymorphonuclear leukocytes” value was “stimulate chemotaxis”. Also, the cerebral blood flow entry in [8] is “increasing cerebral blood flow”.
Take `CC(=O)CCCCn1c(=O)c2c(ncn2C)n(C)c1=O` [PTX, 1-(5-oxohexyl)-3,7-dimethylxanthine]: the “generation of phospholipid second messengers (DAG, PA)” value in data set [9] is “blocks generation of these phospholipid second messengers”. Besides, the PAPH block result in data set [10] is listed as “blocks PAPH”. In addition, the “formation of remodeled PA” value in [11] is reported as “blocks formation of remodeled PA”. Also, the “cytotoxicity associated with inhibition of ras-transformed cells” value in data set [12] is given as “not associated with significant cytotoxicity”. Also, the “inhibition of ras-transformed NIH/3T3 cells” value in [12] (vs parental cells) was “inhibits ras-transformed NIH/3T3 cells more than parental cells”. Moreover, the “stimulation of chemotaxis in polymorphonuclear leukocytes” value in data set [7] was “stimulate chemotaxis”. For the same molecule, in [13], the “TNF levels in normal volunteers” value is on record as “TNF levels were higher among PTX recipients”.
